According to US20250171400A1, “AZA-HETEROCYCLYL CARBOXAMIDE AND RELATED COMPOUNDS AND THEIR USE IN TREATING MEDICAL CONDITIONS” (X-BIOTIX THERAPEUTICS, INC., priority 2021, published 2025):
In brackets after ≈: the same amount, converted by molar mass. Like-named read-outs stand apart in the source and are kept apart here.

Columns and labels:
E. coli LpxC = E. coli LpxC (Escherichia coli (strain K12), UniProt P0A725); experiment: in vitro substrate deacetylation assay for inhibition of LpxC (ADDA analysis); type: biochemical; settings: 5 nM E. coli LpxC, 2.5 μM substrate, 1 hour at room temperature
E. coli LpxC, sequence (P0A725 whole entry): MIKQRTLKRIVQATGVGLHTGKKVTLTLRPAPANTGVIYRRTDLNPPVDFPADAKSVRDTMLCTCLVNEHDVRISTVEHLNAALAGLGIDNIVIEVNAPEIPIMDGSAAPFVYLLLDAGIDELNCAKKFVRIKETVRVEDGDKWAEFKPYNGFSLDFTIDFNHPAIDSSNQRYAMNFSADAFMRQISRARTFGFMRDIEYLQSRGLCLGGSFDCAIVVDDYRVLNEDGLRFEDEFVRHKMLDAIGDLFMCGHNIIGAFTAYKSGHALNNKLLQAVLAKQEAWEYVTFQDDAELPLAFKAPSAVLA
Method: (§1) Exemplary compounds from the above Examples were tested for ability to inhibit LpxC activity using an in vitro substrate deacetylation assay with ADDA™ analysis. Assay procedures and results are described below.
Dilutions of test compound were pre-incubated with 5 nM P. aeruginosa or E. coli LpxC for 10 minutes at room temperature in 50 mM NaH2PO4, 500 mM sucrose, 0.2 mg/mL BSA, pH 7.2 and <1% DMSO. Reactions were initiated by the addition of 2× substrate (UDP-3-O—(R-3-hydroxydecanoyl)-N-acetylglucosamine, Carbosynth Ltd, UK, for P. aeruginosa LpxC and UDP-3-O—(R-3-hydroxymyristoyl)-N-acetylglucosamine, BOC Sciences, USA, for E. coli LpxC), in 50 mM NaH2PO4, 0.5 mg/mL BSA, pH 7.2, to a final concentration of 2.5 μM. Reactions proceeded for 1 hour at room temperature prior to quenching with and equal volume of 2% acetic acid.
For ADDA™ analysis, an aliquot of assay sample was withdrawn from each well of the 384-well plate and applied to a Hypercarb cartridge (Optimize Technologies, USA) under conditions designed to retain analytes of interest. Analytes were eluted using 1:1:2 acetone:acetonitrile:water containing 5 mM ammonium acetate then analysed by triple-quadrupole mass spectrometry. Mass spectrometry was carried out using electrospray ionization in negative ion mode. Daughter ion peaks representing detected substrate (P. aeruginosa: parent Q1 mass=775.8 amu, daughter Q3 mass=384.7 amu E. coli: parent Q1 mass=833.0 amu, daughter Q3 mass=385.0 amu, collision energy=analyte specific, dwell time=50 ms) were identified using a multiple-reaction monitoring protocol.
Total activity (0% inhibition) was obtained from reactions containing no compound, and 100% inhibition is defined as reactions in the presence of 1 μM CHIR-090 (N-[(1S,2R)-2-hydroxy-1-[(hydroxyamino)carbonyl]propyl]-4-[2-[4-(4-morpholinylmethyl)phenyl]ethynyl]-benzamide). For IC50 determinations, peak areas of the substrate and product were compared to compute the proportion of substrate reacted by the LpxC enzyme at each compound concentration. The fractional activity was converted to percentage inhibition and plotted against compound concentration in ActivityBase™ and fit using a four-parameter logistic using non-linear regression to yield the IC50 value.

P. aeruginosa LpxC = P. aeruginosa LpxC (Pseudomonas aeruginosa (strain ATCC 15692 / DSM 22644 / CIP 104116 / JCM 14847 / LMG 12228 / 1C / PRS 101 / PAO1), UniProt P47205); experiment: biochemical; type: biochemical; settings: 5 nM P. aeruginosa LpxC, 2.5 μM substrate, 1 hour at room temperature
Method: as §1
For ADDA™ analysis, an aliquot of assay sample was withdrawn from each well of the 384-well plate and applied to a Hypercarb cartridge (Optimize Technologies, USA) under conditions designed to retain analytes of interest. Analytes were eluted using 1:1:2 acetone:acetonitrile:water containing 5 mM ammonium acetate then analysed by triple-quadrupole mass spectrometry. Mass spectrometry was carried out using electrospray ionization in negative ion mode.
For IC50 determinations, peak areas of the substrate and product were compared to compute the proportion of substrate reacted by the LpxC enzyme at each compound concentration.

[1] = tested on: E. coli BW25113 isogenic mutant deficient in acrA mediated efflux; experiment: broth microdilution minimum inhibition concentration assay; type: cell-based; settings: Escherichia coli, BW25113, read-out: E. coli KO MIC
Method: (§2) Exemplary compounds from the above Examples were tested to determine their minimum inhibitory concentration (MIC) for exemplary strains of Eschericia and Pseudomonas bacteria using broth microdilution methods. Assay procedures and results are described below.
(§3) Broth microdilution assays were conducted according to Clinical and Laboratory Standards Institute guidelines (CLSI, M07-A11: Clinical and Laboratory Standards Institute. Methods for Dilution Antimicrobial Susceptibility Tests for Bacteria that Grow Aerobically; Approved Standard—11th Edition. Wayne, PA: CLSI, 2018.). Briefly, a 0.5 McFarland standard suspension was made from bacterial isolates on non-selective, solid media. The inocula were adjusted to give a bacterial concentration of 1×10^6 CFU/mL. Serial doubling-dilutions of each compound were prepared in cation-adjusted Mueller-Hinton broth (Sigma-Aldrich) in 96-well microdilution plates. A 50 μL aliquot of the inoculum was added to each microdilution plate and, within 15 minutes, incubated at 37° C. in air for 16-20 h. […] The test was controlled by the determination of piperacillin MIC against both E. coli ATCC 25922 and P. aeruginosa ATCC 27853 and ensuring accordance with the ranges published in CLSI supplementary document M100 (CLSI, M100Ed29: Clinical and Laboratory Standards Institute. Performance Standards for Antimicrobial Susceptibility Testing, 29th Edition. Wayne, PA: CLSI, 2018.).
(§4) Multiple enterobacteriaceae strains were tested, including E. coli ATCC 25922 and K. pneumoniae ATCC 43816. WT E. coli BW25113 was tested with an isogenic mutant deficient in acrA mediated efflux by clean deletion. WT P. aeruginosa PAO1 was tested with an isogenic mutant deficient in MexA mediated efflux by clean deletion.
(§5) Experimental results are provided in Table 4, which provides MIC values for wild-type E. coli BW25113 (“E. coli WT MIC”), an isogenic mutant deficient in acrA mediated efflux by clean deletion (“E. coli KO MIC”), wild-type P. aeruginosa PAO1 (“P. aeruginosa WT MIC”), and an isogenic mutant deficient in MexA mediated efflux by clean deletion (“[…]”).

[2] = tested on: P. aeruginosa PAO1 isogenic mutant deficient in MexA mediated efflux; experiment: as above; type: cell-based; settings: Pseudomonas aeruginosa, PAO1, read-out: P. aeruginosa KO MIC
Method: as §2, §3, §4, §5

[3] = tested on: wild-type E. coli BW25113; experiment: as above; type: cell-based; settings: Escherichia coli; wild-type E. coli BW25113, 37° C. 16-20 h; read-out: E. coli WT MIC
Method: as §2, §3, §4, §5

[4] = tested on: wild-type P. aeruginosa PAO1; experiment: as above; type: cell-based; settings: Pseudomonas aeruginosa
Method: as §2, §3, §4, §5

[5] = wild-type P. aeruginosa PAO1, 37° C. 16-20 h, read-out: P. aeruginosa WT MIC
[6] = PAO1, read-out: P. aeruginosa WT MIC

Compound | IC50 (E. coli LpxC) [µM] | IC50 (P. aeruginosa LpxC) [µM] | MIC [1] [µM] | MIC [2] [µM] | MIC [3] [µM] | MIC [4, 5] [µM] | MIC [4, 6] [µM]
CS(=O)(=O)N1C[C@H](NC(=O)[C@@H]2C[C@H](F)CN2)C[C@@H]1C(=O)NCc1ccc(C#Cc2ccc(CN3CCOCC3)cc2)cc1 [Example 9AI, (2R,4R)-4-((2S,4S)-4-Fluoropyrrolidine-2-carboxamido)-1-(methylsulfonyl)-N-(4-((4-(morpholinomethyl)phenyl)ethynyl)benzyl)pyrrolidine-2-carboxamide] | < 0.5 | < 0.05 | 20 to 100 (≈ 12.2 to 61.2 µg/mL) | < 20 | > 100 | > 100 | –
CC(C)C(=O)N1C[C@H](NC(=O)[C@@H]2CC(F)(F)CN2)C[C@@H]1C(=O)NCc1ccc(C#Cc2ccccc2)cc1 [Example 9C] | 0.5 to 2.5 | 0.1 to 1 | 20 to 100 (≈ 10.5 to 52.3 µg/mL) | > 100 | > 100 | – | > 100
COCCN(C(=O)[C@@H]1C[C@H](F)CN1)[C@@H]1C[C@H](C(=O)NCc2ccc(C#Cc3ccc(CN4CCOCC4)cc3)cc2)N(C(=O)C2CC2)C1 [Example 9AV, (2R,4R)-1-(Cyclopropanecarbonyl)-4-((2S,4S)-4-fluoro-N-(2-methoxyethyl)pyrrolidine-2-carboxamido)-N-(4-((4-(morpholinomethyl)phenyl)ethynyl)benzyl)pyrrolidine-2-carboxamide] | > 10 | > 1 | > 100 | > 100 | > 100 | > 100 | –
CNC(=O)N1C[C@H](NC(=O)[C@@H]2C[C@H](F)CN2)C[C@@H]1C(=O)NCc1ccc(C#Cc2ccc(CN3CCOCC3)cc2)cc1 [Example 9AR] | < 0.5 | < 0.05 | 20 to 100 (≈ 11.8 to 59.1 µg/mL) | < 20 | > 100 | > 100 | –
CC(C)C(=O)N1C[C@H](NC(=O)[C@@H]2C[C@@H](O)CN2)C[C@@H]1C(=O)NCc1ccc(C#Cc2ccc(CN3CCOCC3)cc2)cc1 [Example 9Y] | < 0.5 | 0.05 to 0.1 | 20 to 100 (≈ 12 to 60.2 µg/mL) | 20 to 100 (≈ 12 to 60.2 µg/mL) | > 100 | – | > 100
CC(C)C(=O)N1C[C@H](NC(=O)[C@H]2NCC[C@H]2O)C[C@@H]1C(=O)NCc1ccc(C#Cc2ccc(CN3CCOCC3)cc2)cc1 [Example 9V] | 2.5 to 10 | 0.1 to 1 | > 100 | > 100 | > 100 | – | > 100
COC(=O)N1C[C@H](NC(=O)[C@@H]2C[C@H](F)CN2)C[C@@H]1C(=O)NCc1ccc(C#CC#CC2CC2)cc1 [Example 9R] | 0.5 to 2.5 | < 0.05 | < 20 | < 20 | > 100 | > 100 | –
NCCC(=O)N1C[C@H](NC(=O)[C@@H]2C[C@H](F)CN2)C[C@@H]1C(=O)NCc1ccc(C#CC#CC2CC2)cc1 [Example 9M] | 2.5 to 10 | 0.05 to 0.1 | > 100 | > 100 | > 100 | – | > 100
CC(C)C(=O)N1C[C@H](NC(=O)[C@@H]2C[C@@H](F)CN2)C[C@@H]1C(=O)NCc1ccc(C#CC#CC2CC2)cc1 [Example 9I] | 2.5 to 10 | 0.1 to 1 | > 100 | > 100 | > 100 | – | > 100
O=C(NC[C@H]1C[C@@H](NC(=O)[C@@H]2C[C@H](F)CN2)CN1C(=O)C1CC1)c1ccc(C#Cc2ccc(CN3CCOCC3)cc2)c(F)c1 [Example 8, (2S,4S)—N-((3R,5R)-1-(cyclopropanecarbonyl)-5-((3-fluoro-4-((4-(morpholinomethyl)phenyl)ethynyl)benzamido)methyl)pyrrolidin-3-yl)-4-fluoropyrrolidine-2-carboxamide] | < 0.5 | < 0.05 | < 20 | < 20 | < 20 | 20 to 100 (≈ 12.4 to 62 µg/mL) | –
CC(C)C(=O)N1C[C@H](NC(=O)[C@@H]2CCCN2)C[C@@H]1C(=O)NCc1ccc(C#Cc2ccc(CN3CCOCC3)cc2)cc1 [Example 9K] | 0.5 to 2.5 | 0.05 to 0.1 | 20 to 100 (≈ 11.7 to 58.6 µg/mL) | 20 to 100 (≈ 11.7 to 58.6 µg/mL) | > 100 | – | > 100
COCCN1C[C@H](NC(=O)[C@@H]2C[C@H](F)CN2)C[C@@H]1C(=O)NCc1ccc(C#CC#CC2CC2)cc1 [Example 9AM, (2R,4R)—N-(4-(Cyclopropylbuta-1,3-diyn-1-yl)benzyl)-4-((2S,4S)-4-fluoropyrrolidine-2-carboxamido)-1-(2-methoxyethyl)pyrrolidine-2-carboxamide] | 2.5 to 10 | 0.1 to 1 | > 100 | > 100 | > 100 | – | > 100
CC(C)C(=O)N1C[C@H](NC(=O)[C@@H]2C[C@H](F)CN2)C[C@@H]1C(=O)NCc1ccc(C#CC2CC2)cc1 [Example 9BG] | > 10 | 0.1 to 1 | > 100 | > 100 | > 100 | – | > 100
N[C@H]1C[C@H](C(=O)N2C[C@H](NC(=O)[C@@H]3C[C@H](F)CN3)C[C@@H]2C(=O)NCc2ccc(C#CC#CC3CC3)cc2)C1 [Example 9AF] | 0.5 to 2.5 | 0.05 to 0.1 | > 100 | > 100 | > 100 | – | > 100
CC(C)C(=O)N1C[C@H](NC(=O)[C@@H]2C[C@H](F)CN2)C[C@@H]1CNC(=O)c1ccc(C#Cc2ccc(CN3CCOCC3)cc2)cc1 [Example 5, (2S,4S)-4-Fluoro-N-((3R,5R)-1-isobutyryl-5-((4-((4-(morpholinomethyl)phenyl)ethynyl)benzamido)methyl)pyrrolidin-3-yl)pyrrolidine-2-carboxamide] | < 0.5 | < 0.05 | < 20 | < 20 | < 20 | > 100 | –
CC(C)C(=O)N1C[C@H](NC(=O)[C@@H]2C[C@H](F)CN2)C[C@@H]1C(=O)NCc1ccc(C#Cc2ccc(CN3CCOCC3)cc2)cc1 [Example 9D] | < 0.5 | < 0.05 | < 20 | < 20 | 20 to 100 (≈ 12.1 to 60.4 µg/mL) | – | > 100
